Results: patent EP2119770B1, “Production of alpha-oxyfunctionalized carbonyl compounds” (priority 2008, dated 2009)

Tests used:
Gox1122 = target: T1, Gox1122 (Gluconobacter oxydans, UniProt Q5FRV6); conditions: using NADPH, pH range of 4-10
T1 sequence (Q5FRV6 1-463): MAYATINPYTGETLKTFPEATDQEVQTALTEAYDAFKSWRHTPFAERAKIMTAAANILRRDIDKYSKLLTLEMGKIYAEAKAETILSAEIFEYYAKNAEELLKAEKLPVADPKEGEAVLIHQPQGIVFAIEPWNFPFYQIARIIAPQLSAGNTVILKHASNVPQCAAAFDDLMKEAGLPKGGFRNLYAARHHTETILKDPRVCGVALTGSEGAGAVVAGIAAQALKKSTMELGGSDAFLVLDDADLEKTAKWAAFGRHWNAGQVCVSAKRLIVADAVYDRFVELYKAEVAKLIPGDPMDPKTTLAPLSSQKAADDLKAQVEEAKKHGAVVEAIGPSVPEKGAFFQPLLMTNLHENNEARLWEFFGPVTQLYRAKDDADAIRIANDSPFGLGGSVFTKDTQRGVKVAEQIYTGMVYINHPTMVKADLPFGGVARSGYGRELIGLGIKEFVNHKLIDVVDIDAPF
From the text: The enzyme is used in a combined enzymatic reaction between the NADPH-dependent reductases (see above) that form α-hydroxy carbonyl compounds.

Gox0313 = target: T2, Gox0313 (Gluconobacter oxydans, UniProt Q5FU50); assay: Enzyme activity assay (rate of NAD(P)H decrease at 340 nm), Gox0313; assay type: biochemical; conditions: Tab. 6, Gox0313; substrate reduction, cofactor NADH; 10 mM substrate, pH 7.0, 30 °C
T2 sequence (Q5FU50 1-343): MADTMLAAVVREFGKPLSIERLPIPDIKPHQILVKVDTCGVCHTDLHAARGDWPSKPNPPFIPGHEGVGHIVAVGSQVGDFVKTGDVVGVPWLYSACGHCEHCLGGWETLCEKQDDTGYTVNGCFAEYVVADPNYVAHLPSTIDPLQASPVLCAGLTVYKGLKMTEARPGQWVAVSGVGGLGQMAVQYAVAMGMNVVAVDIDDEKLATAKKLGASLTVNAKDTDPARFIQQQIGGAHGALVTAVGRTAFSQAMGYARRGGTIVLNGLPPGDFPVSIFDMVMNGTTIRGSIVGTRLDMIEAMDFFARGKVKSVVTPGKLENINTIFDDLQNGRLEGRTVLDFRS
Protocol: (§1) Measurment of enzyme activity: NADPH-dependent alpha-ketocarbonyl reductases were assayed by a routine method used for NAD(P)-linked enzymes by recording the rate of decrease of NADPH at 340 nm (ε = 6.22 mM^-1 x cm^-1)) with substrates at 30 °C. The reaction mixture (1 ml) for reduction of alpha-ketocarbonyl substrates contained 10 mM substrate, 40 mM potassium phosphate buffer pH 7.0, 0.025 mM NAD(P)H , and the enzyme. Reactions were induced by addition of enzyme or substrate. One unit of enzyme activity was defined as the amount of enzyme catalyzing the conversion of 1 µmol of pyridine nucleotide per min at 30 °C.
(§2) NADPH-dependent α-ketocarbonyl reductases were assayed by a routine method used for NAD(P)-linked enzymes by recording the rate of decrease of NADPH at 340 nm (ε = 6.22 mM^-1.cm^-1) with substrates at 30 °C. The reaction mixture (1 ml) for reduction of alpha-ketocarbonyl substrates contained 10 mM substrate, 40 mM potassium phosphate buffer pH 7.0, 0.025 mM NADPH , and the enzyme. Reactions were induced by addition of enzyme or substrate. One unit of enzyme activity was defined as the amount of enzyme catalyzing the conversion of 1 µmol of pyridine nucleotide per min at 30 °C.
(§3) For each enzyme (Gox0313, Gox0502, Gox0644, Gox0646, Gox1615, Gox2107, and Gox2684 respectively), fresh enzyme preparations were used to validate the substrate spectrum and the kinetic activity. […] Purified NAD(P)-dependent oxidoreductases were assayed at 30 °C by a routine method used for NAD(P)-linked enzymes by recording the rate of decrease of NAD(P)H at 340 nm (ε = […]) with substrates capable of reduction reactions. The standard reaction mixture (1 ml) for the reduction reactions of substrates contained 10 mM substrate, 40 mM potassium phosphate buffer (K-phosphate buffer) pH 7.0, 0.05 mM NAD(P)H, and the enzyme unless otherwise noted. Reactions were induced by addition of enzyme or substrate. One unit of enzyme activity was defined as the amount of enzyme catalyzing the conversion of 1 µmol of pyridine nucleotide per min at 30 °C. Measurement of the protein content was performed by the method of Bradford in Anal. Biochem. 72:248-254 (1976). Table 3: Summary of enzymatic activities with α-diketones, α-ketoaldehydes and /or α-ketoesters

Gox1615 = target: T3, Gox1615 (Gluconobacter oxydans, UniProt Q5FQJ0); assay: Enzyme activity assay (rate of NAD(P)H decrease at 340 nm), Gox1615; assay type: biochemical; conditions: Tab. 5, Gox1615; cofactor NADPH; 10 mM substrate, pH 7.0, 30 °C
T3 sequence (Q5FQJ0 1-332): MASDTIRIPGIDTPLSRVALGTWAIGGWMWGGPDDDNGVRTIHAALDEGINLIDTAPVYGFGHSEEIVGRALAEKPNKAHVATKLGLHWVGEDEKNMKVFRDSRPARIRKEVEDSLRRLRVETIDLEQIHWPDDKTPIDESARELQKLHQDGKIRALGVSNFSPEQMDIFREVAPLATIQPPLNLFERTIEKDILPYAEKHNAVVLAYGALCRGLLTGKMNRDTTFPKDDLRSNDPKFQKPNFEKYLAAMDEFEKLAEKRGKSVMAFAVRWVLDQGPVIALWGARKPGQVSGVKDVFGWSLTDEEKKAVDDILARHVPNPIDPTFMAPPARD
Protocol: as §1, §2, §3

Gox2107 [1] = target: T4, Gox2107 (Gluconobacter oxydans, UniProt Q5FP53); assay: Enzyme activity assay (rate of NAD(P)H decrease at 340 nm), Gox2107; assay type: biochemical
Protocol: as §1, §2, §3

Gox2684 = target: T5, Gox2684 (Gluconobacter oxydans, UniProt Q5HXK5); assay: Enzyme activity assay (rate of NAD(P)H decrease at 340 nm), Gox2684; assay type: biochemical; conditions: Tab. 8, GOX2684; cofactor NADPH; 10 mM substrate, pH 7.0, 30 °C
T5 sequence (Q5HXK5 1-357): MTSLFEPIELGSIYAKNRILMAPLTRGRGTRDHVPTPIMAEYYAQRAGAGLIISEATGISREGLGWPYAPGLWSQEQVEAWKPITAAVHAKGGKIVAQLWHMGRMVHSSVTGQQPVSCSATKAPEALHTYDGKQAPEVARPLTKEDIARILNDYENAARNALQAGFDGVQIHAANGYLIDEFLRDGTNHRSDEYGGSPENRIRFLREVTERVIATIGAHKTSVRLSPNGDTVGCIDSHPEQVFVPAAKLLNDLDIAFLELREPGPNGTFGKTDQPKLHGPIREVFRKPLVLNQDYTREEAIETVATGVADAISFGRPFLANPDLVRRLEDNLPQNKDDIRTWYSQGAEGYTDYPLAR
Protocol: as §1, §2, §3

Gox2107 [2] = target: T4, Gox2107; assay: Enzyme kinetics (Lineweaver-Burk plots), Gox2107; assay type: biochemical; conditions: NADPH-dependent reduction
Protocol: Determination of pH and temperature optima and enzyme kinetics: The optimum pH for enzyme activities was determined by a modified method of Salusjärvi, T. et al., Appl. Microbiol. Biotechnol. 65:306-314 (2004) using the following buffer system (50 mM final concentration each): sodium acetate pH 4.5 - 6.5, potassium phosphate pH 6.5 - 8.0, Tris-HCl pH 8.0 - 10. Temperature optima for the biocatalysts were determined under standard reaction conditions at temperatures ranging from 20 - 80 °C. The Michaelis constant (Km) for the proteins was determined from purified enzyme by Lineweaver-Burk plots. Assays were performed at optimum pH for each enzyme and at 30 °C using the top substrate and a targeted substrate. The Km for each substrate was calculated using concentrations of 0.0025 to 10 mM, and the Km NAD(P)H and NAD(P) was calculated using concentrations of 0.01 to 0.5 mM
The Michaelis constants were determined from purified enzyme by Lineweaver-Burk plots. The Km and Vmax values for the substrates were calculated using concentrations of 0.025 to 10 mM, The optimal pH values and temperatures for enzyme activities are also shown in Tab. 11. Tab. 11: Summary of kinetic parameters

Gox0502 [3] = target: T6, Gox0502 (Gluconobacter oxydans, UniProt Q5FTL6); assay: Enzyme kinetics (Lineweaver-Burk plots), Gox0502; conditions: NADPH-dependent reduction
T6 sequence (Q5FTL6 1-361): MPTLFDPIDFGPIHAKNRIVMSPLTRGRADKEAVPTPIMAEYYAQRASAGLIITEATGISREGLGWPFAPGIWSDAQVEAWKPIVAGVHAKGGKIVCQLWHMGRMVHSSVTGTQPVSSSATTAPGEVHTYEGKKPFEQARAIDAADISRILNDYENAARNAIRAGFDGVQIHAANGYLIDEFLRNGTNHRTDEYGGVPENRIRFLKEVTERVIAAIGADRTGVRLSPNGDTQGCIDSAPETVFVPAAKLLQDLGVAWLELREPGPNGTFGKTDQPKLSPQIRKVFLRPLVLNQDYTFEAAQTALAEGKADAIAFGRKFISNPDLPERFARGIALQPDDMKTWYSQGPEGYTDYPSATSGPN

Gox0502 [4] = target: T6, Gox0502; assay: Enzyme activity assay (rate of NAD(P)H decrease at 340 nm), Gox0502; assay type: biochemical; design: Strep-tag II (N); made in house; host or cells: E. coli BL21 or E. coli DH5α (pASK-IBA5); conditions: Tab. 7, Gox0502; cofactor NADPH; 10 mM substrate, pH 7.0, 30 °C
Protocol: as §1, §2, §3

Row | SMILES | reverse reduction reaction (result in words) (Gox1122) | Specific Activity (Gox0313) [U/mg] | Specific Activity (Gox1615) [U/mg] | activities (Gox2107 [1]; Gox2107, reduction with NADPH) [µmol/mg/min] | Specific Activity (Gox2107 [1]; Tab. 7, Gox2107, cofactor NADPH, 10 mM substrate, pH 7.0, 30 °C) [U/mg] | Specific Activities (Gox2684) [U/mg] | Vmax (Gox2107 [2]) [U/mg protein] | Vmax (Gox0502 [3]) [U/mg protein] | Specific Activity (Gox0502 [4]) [U/mg]
1 | CC(=O)O [acetic acid] | No reverse reduction reaction | – | – | – | – | – | – | – | –
2 | C=CC(C)=O [3-buten-2-one] | – | 1.9 | 0.7 | 119 | 120 | 8.8 | 119 | 21 | 21
